In paper PMC10086185, “Synthesis, radiolabeling, and evaluation of a (4-quinolinoyl)glycyl-2-cyanopyrrolidine analogue for fibroblast activation protein (FAP) PET imaging” (Frontiers in Bioengineering and Biotechnology, 2023):
Several values for one entry are separate records, joined by “and”; a condition that tells them apart may be missing. Equal values may be shown once.

What was measured:
[1] = test system: A549-FAPI cells (human FAP-expressing A549); assay: Cellular uptake of [^18F]3 in A549-FAPI cells; type: cell-based
Method: Briefly, all cells were divided into the following two groups: A: blocking group and B: vehicle group. All cells were cultured, grouped, and plated (approximately 2*10^6 cells per well) before use. Cells were treated with [^18F]3 (74 KBq) and incubated at 37°C under a 5% CO2 atmosphere. […] Incubated at 37°C for 1 h, the medium from each well was removed, and the cells were washed twice with 1 mL of PBS. The medium and the PBS from each well were combined and counted in a Gamma counter (PerkinElmer Wizard 2470) for radioactivity counts. The cells were then handled with 1 mL of 1 M NaOH, and the lysates were also counted in the Wizard 2470 gamma counter. The uptake ratios for each group were then calculated with this equation: %Dose = […](medium counts + PBS counts + cell lysate counts).

[2] = Biodistribution in normal Kunming mice; type: in vivo; settings: for Biodistribution, Intestine, single mice: individual animals; for Biodistribution, Blood / Biodistribution, Bone / Biodistribution, Brain / Biodistribution, Heart / Biodistribution, Intestine / Biodistribution, Kidney / Biodistribution, Lungs / Biodistribution, Muscle / Biodistribution, Spleen / Biodistribution, Stomach / Biodistribution, Liver: mean (SD), n = 5
Method: Normal Kunming mice (4 weeks, 20–25 g) were injected intravenously with about 740 KBq of [^18F]3 in 100 µL of PBS saline solution via the tail vein. All subjects were grouped by time points (n = 5). At designated time points, all subjects were sacrificed, and the organs and tissues were harvested, weighted, and counted in a PerkinElmer Wizard 2470 gamma counter. All the counts obtained from the gamma counter were decay-corrected and used to calculate the tissue biodistribution data, which is presented as the percentage of injected dose per gram of organ (%ID/g).

[3] = test system: A549-FAPI xenograft tumors; assay: Micro-PET/CT imaging, A549-FAPI xenograft tumors; type: in vivo, BALB/c nude mice
Method: BALB/c nude mice used in this study were obtained from the Animal Center of Sichuan University. Tumor-bearing mouse models were established by the subcutaneous injection of 100 µL of PBS suspension containing approximately 1*10^6 tumor cells to the body side of the subjects. The tumor volume was monitored every day, and the tumor-bearing mice were ready for imaging once the tumor volume reached 0.5 mm^3 (tumor volume can be calculated by this equation: Volume = 0.5 * long tail * short tail *short tail). Micro-PET/CT imaging studies were performed on the IRIS Micro-PET/CT system (Inviscan SAS, France). Tumor-bearing mice were injected with approximately 11.2–14.8 MBq of [^18F]3 (200 µL) via the tail vein under anaesthetization by isoflurane. Static PET images were obtained at designated time points and were reconstructed with a 3D-OSEM algorithm using a Monte Carlo-based accurate detector model. Then, 170 sec-CT acquisition was conducted with 50 kV, 1 mA X-ray output for attenuation correction and anatomical orientation. ROIs (regions of interest) were drawn on the lung, kidney, liver, and tumor by OsiriX software. SUV (standardized uptake value) of the ROIs was directly obtained from OsiriX for each subject according to this formula: SUV = Voxal value (Bq/mL) * Body weight (kg)/(Decay corrected Dose (Bq) * 1,000 (g/kg)).
BALB/c nude mice used in this study were obtained from the Animal Center of Sichuan university. Tumor-bearing mice model were established by the subcutaneous injection of 100 µL of PBS suspension containing approximately 1*10^6 tumor cells to the body side of the subjects. The tumor volume was monitored every day and the tumor-bearing mice were ready for imaging once the tumor volume reach 0.5 mm^3 (tumor volume can be calculated by this equation: Volume = 0.5 * long tail * short tail *short tail). Micro-PET/CT imaging studies were performed on the IRIS Micro-PET/CT system (Inviscan SAS, France). Tumor-bearing mice were injected with approximately 11.2-14.8 MBq of [^18F]3 (200 µL) via tail vein under anaesthetization by isoflurane. Static PET images were obtained at designated time points and were reconstructed with a 3D-OSEM algorithm using a Monte-Carlo based accurate detector model. A 170 sec-CT acquisition was conducted with 50 kV, 1 mA X-ray output for attenuation correction and anatomical orientation. ROIs (regions of interest) were drawn on lung, kidney, liver and tumor by Osirix software. SUV (standardized uptake value) of the ROIs was directly obtained from Osirix for each subject according to this formula: SUV = Voxal value (Bq/mL) * Body weight (kg)/(Decay corrected Dose (Bq) * 1000 (g/kg)).

[4] = A549-FAPI tumors, pre-injection of compound 3, 2 mg/kg

N#C[C@@H]1CC(F)(F)CN1C(=O)CNC(=O)c1ccnc2ccc([18F])cc12 [[^18F]3]
Cellular uptake ratio, blocking group ([1]; 1 h, pre-treatment with compound 3, 10 µM): 0.56% ± 0.03%
Cellular uptake ratio ([1]; 1 h incubation, vehicle group): 1.07% ± 0.01%
Biodistribution, Intestine, single mice ([2]; 5 min post-injection (time inferred from the means)): 10.34 %ID/g and 11.05 %ID/g and 10.3 %ID/g and 22.06 %ID/g and 16.22 %ID/g
Biodistribution, Blood ([2]; 5 min post-injection): 12.96 ± 2.03 %ID/g
Biodistribution, Bone ([2]; 5 min post-injection): 1.86 ± 0.54 %ID/g
Biodistribution, Brain ([2]; 5 min post-injection): 0.80 ± 0.29 %ID/g
Biodistribution, Heart ([2]; 5 min post-injection): 11.00 ± 1.64 %ID/g
Biodistribution, Intestine ([2]; 5 min post-injection): 13.99 ± 4.60 %ID/g
Biodistribution, Kidney ([2]; 5 min post-injection): 22.59 ± 5.74 %ID/g
Biodistribution, Lungs ([2]; 5 min post-injection): 11.36 ± 1.89 %ID/g
Biodistribution, Muscle ([2]; 5 min post-injection): 8.02 ± 1.34 %ID/g
Biodistribution, Spleen ([2]; 5 min post-injection): 8.71 ± 1.50 %ID/g
Biodistribution, Stomach ([2]; 5 min post-injection): 7.82 ± 0.86 %ID/g
Biodistribution, Intestine, single mice ([2]; 15 min post-injection (time inferred from the means)): 27.17 %ID/g and 17.59 %ID/g and 22.86 %ID/g and 23.43 %ID/g
Biodistribution, Blood ([2]; 15 min post-injection): 6.90 ± 1.13 %ID/g
Biodistribution, Bone ([2]; 15 min post-injection): 1.59 ± 0.51 %ID/g
Biodistribution, Brain ([2]; 15 min post-injection): 0.61 ± 0.25 %ID/g
Biodistribution, Heart ([2]; 15 min post-injection): 5.71 ± 1.12 %ID/g
Biodistribution, Intestine ([2]; 15 min post-injection): 20.10 ± 6.14 %ID/g
Biodistribution, Kidney ([2]; 15 min post-injection): 12.72 ± 3.88 %ID/g
Biodistribution, Liver ([2]; 15 min post-injection): 27.82 ± 6.35 %ID/g
Biodistribution, Lungs ([2]; 15 min post-injection): 6.84 ± 1.43 %ID/g
Biodistribution, Muscle ([2]; 15 min post-injection): 5.32 ± 1.02 %ID/g
Biodistribution, Spleen ([2]; 15 min post-injection): 4.56 ± 1.09 %ID/g
Biodistribution, Stomach ([2]; 15 min post-injection): 6.98 ± 1.36 %ID/g
Biodistribution, Intestine, single mice ([2]; 30 min post-injection (time inferred from the means)): 31.76 %ID/g and 22.3 %ID/g and 32.3 %ID/g and 24.86 %ID/g and 56.33 %ID/g
Biodistribution, Blood ([2]; 30 min post-injection): 4.35 ± 0.66 %ID/g
Biodistribution, Bone ([2]; 30 min post-injection): 1.80 ± 0.60 %ID/g
Biodistribution, Brain ([2]; 30 min post-injection): 0.35 ± 0.10 %ID/g
Biodistribution, Heart ([2]; 30 min post-injection): 3.53 ± 0.33 %ID/g
Biodistribution, Intestine ([2]; 30 min post-injection): 33.51 ± 12.05 %ID/g
Biodistribution, Kidney ([2]; 30 min post-injection): 8.48 ± 1.34 %ID/g
Biodistribution, Liver ([2]; 30 min post-injection): 15.34 ± 2.67 %ID/g
Biodistribution, Lungs ([2]; 30 min post-injection): 5.15 ± 1.59 %ID/g
Biodistribution, Spleen ([2]; 30 min post-injection): 2.95 ± 0.49 %ID/g
Biodistribution, Stomach ([2]; 30 min post-injection): 5.50 ± 1.26 %ID/g
Biodistribution, Intestine, single mice ([2]; 60 min post-injection (time inferred from the means)): 31 %ID/g and 24.55 %ID/g and 17.85 %ID/g and 13.74 %ID/g and 9.5 %ID/g
Biodistribution, Blood ([2]; 60 min post-injection): 2.61 ± 0.18 %ID/g
Biodistribution, Bone ([2]; 60 min post-injection): 1.91 ± 0.33 %ID/g
Biodistribution, Brain ([2]; 60 min post-injection): 0.20 ± 0.04 %ID/g
Biodistribution, Heart ([2]; 60 min post-injection): 1.91 ± 0.24 %ID/g
Biodistribution, Intestine ([2]; 60 min post-injection): 19.33 ± 7.66 %ID/g
Biodistribution, Kidney ([2]; 60 min post-injection): 5.07 ± 0.81 %ID/g
Biodistribution, Liver ([2]; 60 min post-injection): 9.03 ± 3.62 %ID/g
Biodistribution, Lungs ([2]; 60 min post-injection): 2.35 ± 1.07 %ID/g
Biodistribution, Muscle ([2]; 60 min post-injection): 2.60 ± 1.20 %ID/g
Biodistribution, Spleen ([2]; 60 min post-injection): 1.46 ± 0.24 %ID/g
Biodistribution, Stomach ([2]; 60 min post-injection): 2.98 ± 1.22 %ID/g
Biodistribution, Intestine, single mice ([2]; 90 min post-injection (time inferred from the means)): 6.25 %ID/g and 12.96 %ID/g and 10.39 %ID/g and 11.77 %ID/g and 4.91 %ID/g
Biodistribution, Intestine, single mice ([2]; 120 min post-injection (time inferred from the means)): 6.06 %ID/g and 1.76 %ID/g and 4.52 %ID/g and 2.19 %ID/g and 9.23 %ID/g
Biodistribution, Blood ([2]; 120 min post-injection): 1.29 ± 0.28 %ID/g
Biodistribution, Bone ([2]; 120 min post-injection): 1.65 ± 0.81 %ID/g
Biodistribution, Brain ([2]; 120 min post-injection): 0.08 ± 0.02 %ID/g
Biodistribution, Heart ([2]; 120 min post-injection): 0.93 ± 0.20 %ID/g
Biodistribution, Intestine ([2]; 120 min post-injection): 4.75 ± 2.73 %ID/g
Biodistribution, Kidney ([2]; 120 min post-injection): 2.27 ± 0.93 %ID/g
Biodistribution, Liver ([2]; 120 min post-injection): 5.39 ± 3.36 %ID/g
Biodistribution, Lungs ([2]; 120 min post-injection): 1.87 ± 0.49 %ID/g
Biodistribution, Muscle ([2]; 120 min post-injection): 1.51 ± 0.48 %ID/g
Biodistribution, Spleen ([2]; 120 min post-injection): 0.85 ± 0.13 %ID/g
Biodistribution, Stomach ([2]; 120 min post-injection): 1.63 ± 0.51 %ID/g
Biodistribution, Intestine, single mice ([2]; 240 min post-injection (time inferred from the means)): 7.72 %ID/g and 2.48 %ID/g and 5.26 %ID/g and 2.09 %ID/g and 6.66 %ID/g
Biodistribution, Blood ([2]; 240 min post-injection): 0.75 ± 0.19 %ID/g
Biodistribution, Bone ([2]; 240 min post-injection): 1.33 ± 0.30 %ID/g
Biodistribution, Brain ([2]; 240 min post-injection): 0.04 ± 0.02 %ID/g
Biodistribution, Heart ([2]; 240 min post-injection): 0.39 ± 0.11 %ID/g
Biodistribution, Intestine ([2]; 240 min post-injection): 4.84 ± 2.23 %ID/g
Biodistribution, Kidney ([2]; 240 min post-injection): 0.82 ± 0.23 %ID/g
Biodistribution, Liver ([2]; 240 min post-injection): 2.47 ± 1.47 %ID/g
Biodistribution, Lungs ([2]; 240 min post-injection): 0.69 ± 0.19 %ID/g
Biodistribution, Muscle ([2]; 240 min post-injection): 0.76 ± 0.23 %ID/g
Biodistribution, Spleen ([2]; 240 min post-injection): 0.38 ± 0.13 %ID/g
Biodistribution, Stomach ([2]; 240 min post-injection): 1.64 ± 0.69 %ID/g
Activity in the bone ([2]; all time points): lower than 2 %ID/g
Radioactivity in the brain ([2]; all time points): lower than 1 %ID/g
Tumor-to-muscle (T/M) ratio ([3]; A549-FAPI tumors, 90 min p.i.): 4.34
Tumor SUV, blocking group [3, 4]: lower than 0.2
Tumor-to-muscle (T/M) ratio, blocking group [3, 4]: less than 2.0
Tumor SUV ([3]; A549-FAPI xenografted tumors, within 90 min): greater than 0.4
